Assays:
Type in all cases: in vivo
[1] = test system: Echinochloa crus-galli (ECHCG); assay: Pre-emergence herbicidal activity, Echinochloa crus-galli; parameters: key: 5=total damage to plant; 0=no damage to plant; settings: 1000 g/ha, evaluated after 13 days
Summary of the method: (§1)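 Visual injury score, 0–5, taken 13 days after a pre-emergence spray applied one day post-sowing; spray vehicle acetone/water (50:50) with 0.5% Tween 20.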

[2] = test system: Setaria faberi (SETFA); assay: Post-emergence herbicidal activity, Setaria faberi; parameters: key: 5=total damage to plant; 0=no damage to plant; settings: 1000 g/ha, evaluated after 13 days
Summary of the method: (§2)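 Glasshouse post-emergence spray test: seedlings treated at 8 days after sowing with compound formulated in 50:50 acetone/water plus 0.5% Tween 20, then grown on at 24/16 °C, 14 h light, 65% humidity. Injury rated 13 days later, 0 = no damage, 5 = total damage.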

[3] = test system: Abutilon theophrasti (ABUTH); assay: Pre-emergence herbicidal activity, Abutilon theophrasti; parameters: key: 5=total damage to plant; 0=no damage to plant; settings: 1000 g/ha, evaluated after 13 days, Test 1b
Procedure: (§3) Seeds of a variety of test species were sown in standard soil in pots: Triticum aestivium (TRZAW), Avena fatua (AVEFA), Alopecurus myosuroides (ALOMY), Echinochloa crus-galli (ECHCG), Lolium perenne (LOLPE), Zea Mays (ZEAMX), Abutilon theophrasti (ABUTH), Amaranthus retroflexus (AMARE) and Setaria faberi (SETFA). After cultivation for one day (pre-emergence) under controlled conditions in a glasshouse (at 24/16° C., day/night; 14 hours light; 65% humidity), the plants were sprayed with an aqueous spray solution derived from the formulation of the technical active ingredient in acetone/water (50:50) solution containing 0.5% Tween 20 (polyoxyethelyene sorbitan monolaurate, CAS RN 9005-64-5). The test plants were then grown in a glasshouse under controlled conditions (at 24/16°, day/night; 14 hours light; 65% humidity) and watered twice daily. After 13 days, the test was evaluated (5=total damage to plant; 0=no damage to plant).

[4] = test system: Amaranthus retroflexus (AMARE); assay: Pre-emergence herbicidal activity, Amaranthus retroflexus; parameters: key: 5=total damage to plant; 0=no damage to plant; settings: 1000 g/ha, evaluated after 13 days, Test 1b
Procedure: as §3

[5] = test system: Lolium perenne (LOLPE); assay: Post-emergence herbicidal activity, Lolium perenne; settings: 1000 g/ha, evaluated after 13 days
Summary of the method: as §2

[6] = test system: Amaranthus retroflexus (AMARE); assay: Post-emergence herbicidal activity, Amaranthus retroflexus; settings: 1000 g/ha, evaluated after 13 days, Test 2b
Procedure: (§4) Seeds of a variety of test species were sown in standard soil in pots: Triticum aestivium (TRZAW), Avena fatua (AVEFA), Alopecurus myosuroides (ALOMY), Echinochloa crus-galli (ECHCG), Lolium perenne (LOLPE), Zea Mays (ZEAMX), Abutilon theophrasti (ABUTH), Amaranthus retroflexus (AMARE) and Setaria faberi (SETFA). After 8 days cultivation (post-emergence) under controlled conditions in a glasshouse (at 24/16° C., day/night; 14 hours light; 65% humidity), the plants were sprayed with an aqueous spray solution derived from the formulation of the technical active ingredient in acetone/water (50:50) solution containing 0.5% Tween 20 (polyoxyethelyene sorbitan monolaurate, CAS RN 9005-64-5). The test plants were then grown in a glasshouse under controlled conditions (at 24/16° C., day/night; 14 hours light; 65% humidity) and watered twice daily. After 13 days, the test was evaluated (5=total damage to plant; 0=no damage to plant).

[7] = test system: Abutilon theophrasti (ABUTH); assay: Post-emergence herbicidal activity, Abutilon theophrasti; parameters: key: 5=total damage to plant; 0=no damage to plant; settings: 1000 g/ha, evaluated after 13 days, Test 2b
Procedure: as §4

[8] = test system: Zea Mays (ZEAMX); assay: Post-emergence herbicidal activity, Zea Mays; parameters: key: 5=total damage to plant; 0=no damage to plant; settings: 1000 g/ha, evaluated after 13 days, Test 2b
Procedure: as §4

[9] = test system: Echinochloa crus-galli (ECHCG); assay: Post-emergence herbicidal activity, Echinochloa crus-galli; parameters: key: 5=total damage to plant; 0=no damage to plant; settings: 1000 g/ha, evaluated after 13 days
Summary of the method: as §2

[10] = test system: Lolium perenne (LOLPE); assay: Pre-emergence herbicidal activity, Lolium perenne; parameters: key: 5=total damage to plant; 0=no damage to plant; settings: 1000 g/ha, evaluated after 13 days
Summary of the method: as §1

[11] = test system: Setaria faberi (SETFA); assay: Pre-emergence herbicidal activity, Setaria faberi; parameters: key: 5=total damage to plant; 0=no damage to plant; settings: 1000 g/ha, evaluated after 13 days
Summary of the method: as §1

[12] = test system: Zea Mays (ZEAMX); assay: Pre-emergence herbicidal activity, Zea Mays; settings: 1000 g/ha, evaluated after 13 days, Test 1b
Procedure: as §3

[13] = test system: Triticum aestivium (TRZAW); assay: Post-emergence herbicidal activity, Triticum aestivium; parameters: key: 5=total damage to plant; 0=no damage to plant; settings: 1000 g/ha, evaluated after 13 days
Summary of the method: as §2

[14] = test system: Triticum aestivium (TRZAW); assay: Pre-emergence herbicidal activity, Triticum aestivium; parameters: key: 5=total damage to plant; 0=no damage to plant; settings: 1000 g/ha, evaluated after 13 days
Summary of the method: as §1

[15] = test system: Alopecurus myosuroides (ALOMY); assay: Pre-emergence herbicidal activity, Alopecurus myosuroides; parameters: key: 5=total damage to plant; 0=no damage to plant; settings: 1000 g/ha, evaluated after 13 days
Summary of the method: as §1

[16] = test system: Avena fatua (AVEFA); assay: Pre-emergence herbicidal activity, Avena fatua; parameters: key: 5=total damage to plant; 0=no damage to plant; settings: 1000 g/ha, evaluated after 13 days
Summary of the method: as §1

[17] = test system: Alopecurus myosuroides (ALOMY); assay: Post-emergence herbicidal activity, Alopecurus myosuroides; parameters: key: 5=total damage to plant; 0=no damage to plant; settings: 1000 g/ha, evaluated after 13 days
Summary of the method: as §2

[18] = test system: Avena fatua (AVEFA); assay: Post-emergence herbicidal activity, Avena fatua; settings: 1000 g/ha, evaluated after 13 days
Summary of the method: as §2

Row | Compound | Control of ECHCG after pre-emergence application (score 0-5) [1] | Control of SETFA after post-emergence application (score 0-5) [2] | Control of TRAZW after post-emergence application (score 0-5) [13] | Control of TRAZW after pre-emergence application (score 0-5) [14] | Control of ALOMY after pre-emergence application (score 0-5) [15] | Control of LOLPE after post-emergence application (score 0-5) [5] | Control of AVEFA after pre-emergence application (score 0-5) [16] | Control of ALOMY after post-emergence application (score 0-5) [17] | Control of ECHCG after post-emergence application (score 0-5) [9] | Control of LOLPE after pre-emergence application (score 0-5) [10] | Control of SETFA after pre-emergence application (score 0-5) [11] | Control of AVEFA after post-emergence application (score 0-5) [18] | also measured
1 | Cc1nc(-c2cncc(OC(F)F)c2)ccc1NC(=O)OC(C)(C)C [Compound B13] | – | – | – | – | – | – | – | – | – | – | – | – | ECHCG damage score (0-5) ([1]; Test 1b): 2; SETFA damage score (0-5) ([2]; Test 2b): 5; ABUTH damage score (0-5) [3]: 0; AMARE damage score (0-5) [4]: 0; LOLPE damage score (0-5) ([5]; Test 2b): 2; AMARE damage score (0-5) [6]: 1; ABUTH damage score (0-5) [7]: 0; ZEAMX damage score (0-5) [8]: 5; ECHCG damage score (0-5) ([9]; Test 2b): 3; LOLPE damage score (0-5) ([10]; Test 1b): 1; SETFA damage score (0-5) ([11]; Test 1b): 3; ZEAMX damage score (0-5) [12]: 2
2 | CC(C)(C)OC(=O)N(C(=O)OC(C)(C)C)c1ccc(-c2cncc(F)c2)nc1C#N [Compound B114] | 5 | 5 | 1 | 0 | 0 | 3 | 1 | 0 | 5 | 1 | 5 | 4 | –
3 | CC(C)OC(=O)Nc1ccc(-c2cncc(F)c2)nc1C#N [Compound B115] | 4 | 5 | 1 | 0 | 0 | 3 | 2 | 1 | 5 | 0 | 5 | 4 | –
4 | O=C(Nc1ccc(-c2cncc(F)c2)nc1C(F)(F)F)N1CCS(=O)(=O)C1 [Compound B116, N-[6-(5-fluoro-3-pyridyl)-2-(trifluoromethyl)-3-pyridyl]-1,1-dioxo-1,3-thiazolidine-3-carboxamide] | 4 | 5 | 1 | 0 | 0 | 3 | 2 | 1 | 4 | 1 | 5 | 3 | –
5 | O=C(Nc1ccc(-c2cncc(F)c2)nc1C(F)(F)F)N1CC[S+]([O-])C1 (stereo not drawn) [Compound B117, N-[6-(5-fluoro-3-pyridyl)-2-(trifluoromethyl)-3-pyridyl]-1-oxo-1,3-thiazolidine-3-carboxamide] | 4 | 5 | 3 | 0 | 0 | 4 | 3 | 1 | 5 | 1 | 5 | 4 | –
6 | CC(C)(C#N)OC(=O)Nc1ccc(-c2cncc(F)c2)nc1C(F)(F)F [Compound B118] | 2 | 4 | 0 | 0 | 0 | 1 | 0 | 0 | 3 | 0 | 4 | 3 | –
7 | C=CCOC(=O)Nc1ccc(-c2cncc(F)c2)nc1C(F)(F)F [Compound B119] | 3 | 5 | 0 | 0 | 0 | 3 | 2 | 0 | 3 | 0 | 5 | 4 | –
8 | CN1COCN(c2ccc(-c3cncc(F)c3)nc2C(F)(F)F)C1=O [Compound B121, 3-[6-(5-fluoro-3-pyridyl)-2-(trifluoromethyl)-3-pyridyl]-5-methyl-1,3,5-oxadiazinan-4-one] | 2 | 5 | 0 | 0 | 0 | 2 | 0 | 0 | 3 | 0 | 4 | 3 | –
9 | C=CCN(C(=O)N(C)C)c1ccc(-c2cncc(F)c2)nc1C(F)(F)F [Compound B123] | 3 | 5 | 1 | 0 | 0 | 1 | 1 | 2 | 3 | 1 | 5 | 2 | –

— patent US20210127673A1, “HERBICIDES” (SYNGENTA PARTICIPATIONS AG, priority 2016, published 2021)
